The values below come from patent publication US20210115000A1, “NILE RED DERIVATIVES FOR IMPROVED RATIOMETRIC IMAGING FOR NERVE SPECIFIC CONTRAST” (Oregon Health & Sciences University, priority 2018, published 2021).

Molecules are shown by their SMILES.

The test system of series [1] is nerve, adipose and muscle tissue at nerve sites. The series is described as follows: In vivo co-staining with Oxazine 4, ratiometric imaging and ROC curve analysis. Further details: species or system male CD-1 mice. Conditions: 30 min after staining compared to immediately following staining. The text has this: In vivo images were acquired using a previously published, custom-built small animal fluorescence imaging system, described briefly here.^27 Fluorescent images were obtained using a Qimaging EXi Blue monochrome camera (Surrey, British Columbia, CA) with a removable Bayer mask for collection of co-registered color and fluorescence images. A Photofluor II broad band light source (89 North) was expanded onto the surgical field through a liquid light guide and used unfiltered for white light illumination. Nile Red and NR5 were excitated using a 545 t 12.5 nm bandpass filter, while fluorescence emission images were collected with a 605±35 nm bandpass filter. Oxazine 4 (Exciton, West Chester, Ohio) was used for nerve and adipose co-staining and ratiometic imaging studies. Oxazine 4 was excited using a 620±30 nm bandpass filter, while fluorescence emission images were collected through a 700±37.5 nm bandpass filter. Approval for the use of animals in the study was obtained from the Institutional Animal Care and Use Committee (IACUC) at Oregon Health and Science University (OHSU). In vivo staining studies were carried out on male CD-1 mice using an optimized direct/topical administration protocol.^2 Staining was performed concurrently on no more than two nerve sites (sciatic nerve or brachial plexus) per mouse. Nile Red and all Nile Red derivatives were formulated in a previously published co-solvent formulation (10% DMSO, 5% Kolliphor, 63.75% serum and 21.25% PBS^14) at a final concentration of 100 μM. Each formulated fluorophore was incubated for 5 minutes on the nerve site (n=4 nerve sites/fluorophore), followed by 9 short flushes with PBS. The nerve site was then incubated with blank co-solvent not containing fluorophore for 5 minutes, followed again by 9 short flushes with PBS. In vivo co-staining was completed with (1) Nile Red and Oxazine 4 as well as (2) NR5 and Oxazine 4. For these studies, co-solvent formulated Oxazine 4 ([…]) was incubated on the nerve site for 5 minutes followed by 9 short flushes with PBS. The co-solvent formulated Nile Red or NR5 (100 μM) was then incubated on the nerve site for 5 minutes and also followed by 9 short flushes with PBS. Co-registered (1) Nile Red and Oxazine 4 or (2) NR5 and Oxazine 4 images were collected from n=4 nerve sites per groups (1) and (2). Ratiometric images were calculated and quantified using region of interest analysis on the white light images to identify the nerve, adipose and muscle tissue types. Due to the known cross talk of Oxazine 4 into the Nile Red channel,^2 the Oxazine 4 image was subtracted from the Nile Red or NR5 image resulting in an image of only adipose. The ratiometric images were then calculated as the Oxazine 4 image minus the corrected Nile Red or NR5 image divided by the corrected Nile Red or NR5 image. Receiver Operator Characteristic (ROC) curve analysis was performed to assess differences between the ratiometric images, where the area under the curve (AUC) was used as the metric to differentiate between groups (1) and (2) using custom written MatLab code.^28

Series [2] can be described thus: Spectroscopic analysis: absorbance, emission and quantum yield of Nile Red derivatives. Type of series: physicochemical. Particulars: in DMSO; for QY (quantum yield): standard Rhodamine B. As to the method: Tandem liquid chromatography mass spectroscopy (LCMS) analysis (Agilent 1260 LC system with a 6224 time of flight (TOF) MS, Agilent, Santa Clara, Calif.) was performed using a 2.7 micron C18 column (4.6×50 mm, Agilent). High performance liquid chromatography (HPLC) purification (Agilent 1260 system with a preparative pump) was performed using a 5 micron C18 column (21.2×150 mm, Agilent). For both HPLC and LCMS, the mobile phase consisted of HPLC grade acetonitrile and water, treated with 0.1% formic acid. Spectroscopic analysis was performed on a Spectramax M5 spectrometer (Molecular Devices, Sunnyvale, Calif.) using a quartz cuvette with a 1 cm pathlength. Quantum yield was calculated according to equation (1).
Where Ø is the quantum yield, F is the integrated fluorescence intensity, f is the absorbance at the excitation wavelength and n is the refractive index of the solvent. S refers to the quantum yield standard (Rhodamine B)^25 and X refers to the unknown sample.

In series [3] the test system is U2OS human osteosarcoma cell line. The series is described as follows: Nile Red derivative cell staining and imaging, fixed and live cells. Particulars: 1 μM; for fluorescence intensity in fixed cells: U2OS fixed with 4% PFA, imaged without washing; for fluorescence intensity in live cells without washing / structures observed in live cells without washing: U2OS live, imaged in staining solution. Type of series: cell-based. As to the method:
The U2OS human osteosarcoma cell line was cultured in Dulbecco's Modified Eagle Medium (DMEM, Thermo Fisher Scientific, Waltham, Mass.) with 10% fetal bovine serum (FBS, VWR, Radnor, Pa.) and 1% Penicillin/Steptomycin 100× (Thermo Fisher Scientific) at 37° C. in 5% CO2. For live cell imaging studies, Fluorobrite DMEM media (Thermo Fisher Scientific) was used in place of DMEM. For imaging studies, cells were grown in 96-well glass bottom plates (Cellvis, Mountain View, Calif.) for 48 hours, with a final confluence of <80%. Nile Red and its derivatives were prepared at 1-10 mM stock concentration in DMSO and diluted into media or buffer for cell staining and imaging studies.
Cell staining studies were completed on fixed and live U2OS cells using Nile Red and each synthesized Nile Red derivative described as follows. For fixed cell staining, cells were washed once with 1× phosphate buffered saline (PBS), then fixed with 4% paraformaldehyde (PFA) for 20 minutes at room temperature. The PFA was removed and each well was washed three times for 5 mins per wash (3×5 mins) with 1×PBS. The Nile Red fluorophores were diluted into 1×PBS to a final concentration of 1 μM, incubated for 5 minutes with the cells, and images were collected without washing. Live cell staining was completed using two methods. First, cells were washed once with Fluorobrite DMEM. The Nile Red fluorophore solution was prepared in Fluorobrite DMEM by diluting to a final concentration of 1 μM for staining, where cells were stained for 5 minutes. The fluorophore containing media was removed and the cells were fixed for 20 minutes using 4% PFA. Cells were then washed 3×5 mins with Fluorobrite DMEM prior to imaging. Second, cells were washed with Fluorobrite DMEM without FBS once for 5 minutes. Nile Red fluorophore solutions were prepared in Fluorobrite without FBS at 1 μM final concentration for cell staining. The cells were stained with the prepared solution for 5 minutes and imaged in the staining solution. All images were collected at their ideal exposure times to permit visualization of stained intracellular structures.
All ex vivo and cellular fluorescence and white light images were collected using a Zeiss AxioObserver inverted fluorescence microscope (Carl Zeiss, Oberkochen, Germany). All cell images were collected at 40× magnification and all tissue section images were collected at 10× magnification. Fluorescence excitation was completed using a Photofluor II broad band light source (89 North, Burlington, Vt.) filtered with a 545±12.5 nm bandpass excitation filter. Fluorescence images were collected using a 605±35 nm bandpass emission filter and a AxioCam 506 monochromo camera (Zeiss). All Filters were Purchased from Chroma Technologies (Bellows Falls, Vt.).

The subject of series [4] is sciatic nerve or brachial plexus nerve sites (adipose, nerve, muscle tissue). The series is described as follows: In vivo imaging following direct/topical administration on rodent nerve sites. Also noted: species or system male CD-1 mice. Conditions: immediately following direct administration. An excerpt: In vivo images were acquired using a previously published, custom-built small animal fluorescence imaging system, described briefly here.^27 Fluorescent images were obtained using a Qimaging EXi Blue monochrome camera (Surrey, British Columbia, CA) with a removable Bayer mask for collection of co-registered color and fluorescence images. A Photofluor II broad band light source (89 North) was expanded onto the surgical field through a liquid light guide and used unfiltered for white light illumination. Nile Red and NR5 were excitated using a 545 t 12.5 nm bandpass filter, while fluorescence emission images were collected with a 605±35 nm bandpass filter. Oxazine 4 (Exciton, West Chester, Ohio) was used for nerve and adipose co-staining and ratiometic imaging studies. Oxazine 4 was excited using a 620±30 nm bandpass filter, while fluorescence emission images were collected through a 700±37.5 nm bandpass filter. Approval for the use of animals in the study was obtained from the Institutional Animal Care and Use Committee (IACUC) at Oregon Health and Science University (OHSU). In vivo staining studies were carried out on male CD-1 mice using an optimized direct/topical administration protocol.^2 Staining was performed concurrently on no more than two nerve sites (sciatic nerve or brachial plexus) per mouse. Nile Red and all Nile Red derivatives were formulated in a previously published co-solvent formulation (10% DMSO, 5% Kolliphor, 63.75% serum and 21.25% PBS^14) at a final concentration of 100 μM. Each formulated fluorophore was incubated for 5 minutes on the nerve site (n=4 nerve sites/fluorophore), followed by 9 short flushes with PBS. The nerve site was then incubated with blank co-solvent not containing fluorophore for 5 minutes, followed again by 9 short flushes with PBS.

Where [5] appears, read: U2OS, fixed and washed prior to imaging.

As for `CC/N=c1/cc2oc3cc(NCC)c(C)cc3nc-2cc1C` [Oxazine 4, reference compound], in series [1], the “ROC AUC of nerve-to-muscle contrast, change” value is “improved values”.
Take `CCN(CC)c1ccc2nc3c4cc(C#Cc5cccc(C=O)c5)ccc4c(=O)cc-3oc2c1` [NR8, 3-((9-(diethylamino)-5-oxo-5H-benzo[a]phenoxazin-2-yl)ethynyl)benzaldehyde]: in series [2], the “Max Abs” value is listed as 565 nm, the “Max Em” value came out at 640 nm, the “Stokes Shift” value stood at 75 nm and the “QY (quantum yield)” value came out at 0.48. In series [3] (5 min), the “fluorescence intensity in fixed cells” value is “bright” and the “fluorescence intensity in live cells without washing” value is “brightest of the synthesized derivatives”.
With `CCN(CC)c1ccc2nc3c4cc(C#Cc5cc(C=O)ccc5OC)ccc4c(=O)cc-3oc2c1` [NR9, 3-((9-(diethylamino)-5-oxo-5H-benzo[a]phenoxazin-2-yl)ethynyl)-4-methoxybenzaldehyde], in series [2], the “Max Abs” value is 565 nm, the “Max Em” value is 640 nm, the “Stokes Shift” value was 75 nm and the “QY (quantum yield)” value worked out at 0.48. Also, in series [3] (5 min), the “structures observed in live cells without washing” value is given as “Prominent lipid droplet like structures”.
With `CCN(CC)c1ccc2nc3c4cc(C#Cc5ccc(C=O)c(S(C)(=O)=O)c5)ccc4c(=O)cc-3oc2c1` [NR6, 4-((9-(diethylamino)-5-oxo-5H-benzo[a]phenoxazin-2-yl)ethynyl)-2-(methylsulfonyl)benzaldehyde], in series [4], the “adipose to nerve ratio” value was “increased contrast over control autofluorescence with similar adipose to nerve contrast”. Besides, in series [2], the “Max Abs” value was 570 nm, the “Max Em” value worked out at 640 nm, the “Stokes Shift” value is recorded as 70 nm and the “QY (quantum yield)” value is on record as 0.45. Also, in series [3] (U2OS, 5 min, fixed and washed prior to imaging), the “exposure time in cells stained live, then fixed” value was “less than 10 sec”. Besides, the “staining pattern in cells stained live, then fixed” value (from here on “staining pattern”) in series [3] (setting [5]) is “more cytoplasmic structures were stained”.
Regarding `CCN(CC)c1ccc2nc3c4cc(C#Cc5cccc(N)c5)ccc4c(=O)cc-3oc2c1` [NR7, 2-((3-aminophenyl)ethynyl)-9-(diethylamino)-5H-benzo[a]phenoxazin-5-one], in series [2], the “Max Abs” value was found to be 565 nm, the “Max Em” value worked out at 640 nm, the “Stokes Shift” value turned out to be 75 nm and the “QY (quantum yield)” value stood at 0.14. Moreover, the “staining pattern” value in series [3] (setting [5]) is on record as “more cytoplasmic structures were stained”.
Regarding `CCN(CC)c1ccc2nc3c4cc(-c5ccc(N)cc5)ccc4c(=O)cc-3oc2c1` [NR10, 2-(4-aminophenyl)-9-(diethylamino)-5H-benzo[a]phenoxazin-5-one], in series [4], the “adipose to muscle ratio” value is reported as “lower than Nile Red, adipose to muscle contrast was similar” and the “adipose to nerve ratio” value is “increased contrast over control autofluorescence with similar adipose to nerve contrast”. Also, in series [2], the “Max Abs” value turned out to be 555 nm, the “Max Em” value was 635 nm, the “Stokes Shift” value is recorded as 80 nm and the “QY (quantum yield)” value is reported as 0.04. Besides, the “staining pattern” value in series [3] (setting [5]) is “more cytoplasmic structures were stained”.
As for `CCN(CC)c1ccc2nc3c4ccc(-c5ccc(N)cc5)cc4c(=O)cc-3oc2c1` [NR1], in series [4], the “adipose to muscle ratio” value is “lower than Nile Red, adipose to muscle contrast was similar” and the “adipose to nerve ratio” value was “increased contrast over control autofluorescence with similar adipose to nerve contrast”. Moreover, in series [2], the “Max Abs” value stood at 555 nm, the “Max Em” value is reported as 635 nm, the “Stokes Shift” value was 80 nm and the “QY (quantum yield)” value was determined as 0.08. In addition, in series [3] (5 min), the “fluorescence intensity in fixed cells” value was “brighter in vitro fluorescence than NR12”; the “fluorescence intensity in live cells without washing” value is “brighter than other Nile Red derivatives with higher quantum yields such as NR12 and NR6”; the “structures observed in live cells without washing” value was “Prominent lipid droplet like structures”.
